In PubChem BioAssay AID2060618 (Molecular Pharmacology Branch, DTP, NCI, 2025):

System: 454973-116-R2-J3-PDC spheroids, percent test/control viability
Experiment: Anticancer human tumor 454973-116-R2-J3-PDC patient-derived pancreatic carcinoma cell line growth inhibition [CLK]
Settings: spheroids with HUVEC and MSC; for IC50: curve of first compound; for viability, T/C: stronger effect = lower value
How it was run: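 Patient-derived tumor cells grown as complex spheroids with HUVEC endothelial cells and mesenchymal stem cells, treated with drug combinations. Concentrations descend in half-log steps from near clinical Cmax, or from 10 microM if Cmax unknown.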

[1] = second compound 0.0316 µM, first compound 0.0316 µM
[2] = second compound 0.0316 µM, first compound 0.1 µM
[3] = second compound 0.0316 µM, first compound 0.316 µM
[4] = second compound 0.0316 µM, first compound 1 µM
[5] = second compound 0.0316 µM, first compound 3.16 µM
[6] = second compound 0.0316 µM, first compound 10 µM
[7] = second compound 0.1 µM, first compound 0.0316 µM
[8] = second compound 0.1 µM, first compound 0.1 µM
[9] = second compound 0.1 µM, first compound 0.316 µM
[10] = second compound 0.1 µM, first compound 1 µM
[11] = second compound 0.1 µM, first compound 3.16 µM
[12] = second compound 0.1 µM, first compound 10 µM
[13] = second compound 0.316 µM, first compound 0.0316 µM
[14] = second compound 0.316 µM, first compound 0.1 µM
[15] = second compound 0.316 µM, first compound 0.316 µM
[16] = second compound 0.316 µM, first compound 1 µM
[17] = second compound 0.316 µM, first compound 3.16 µM
[18] = second compound 0.316 µM, first compound 10 µM
[19] = second compound 1 µM, first compound 0.0316 µM
[20] = second compound 1 µM, first compound 0.1 µM
[21] = second compound 1 µM, first compound 0.316 µM
[22] = second compound 1 µM, first compound 1 µM
[23] = second compound 1 µM, first compound 3.16 µM
[24] = second compound 1 µM, first compound 10 µM
[25] = second compound 3.16 µM, first compound 0.0316 µM
[26] = second compound 3.16 µM, first compound 0.1 µM
[27] = second compound 3.16 µM, first compound 0.316 µM
[28] = second compound 3.16 µM, first compound 1 µM
[29] = second compound 3.16 µM, first compound 3.16 µM
[30] = second compound 3.16 µM, first compound 10 µM
[31] = second compound 10 µM, first compound 0.0316 µM
[32] = second compound 10 µM, first compound 0.1 µM
[33] = second compound 10 µM, first compound 0.316 µM
[34] = second compound 10 µM, first compound 1 µM
[35] = second compound 10 µM, first compound 3.16 µM
[36] = second compound 10 µM, first compound 10 µM
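Further: spheroids exposed to compounds for 7 days before readout.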

CC(=O)O[C@H]1C(=O)[C@@]2(C)[C@H]([C@H](OC(=O)c3ccccc3)[C@]3(O)C[C@H](OC(=O)[C@H](O)[C@@H](NC(=O)c4ccccc4)c4ccccc4)C(C)=C1C3(C)C)[C@]1(OC(C)=O)CO[C@@H]1C[C@@H]2O + CNC(=O)c1ccc(Nc2nc(OC3CCCC3)c3c(-c4ccc5nc(C)oc5c4)c[nH]c3n2)c(OC)c1
IC50 (second compound 0.0316 µM): < 31.6 nM
IC50 (second compound 0.1 µM): < 31.6 nM
IC50 (second compound 0.316 µM): < 31.6 nM
IC50 (second compound 1 µM): < 31.6 nM
IC50 (second compound 3.16 µM): < 31.6 nM
IC50 (second compound 10 µM): < 31.6 nM
viability, T/C [1]: 7.2%
viability, T/C [2]: 10.3%
viability, T/C [3]: 8.05%
viability, T/C [4]: 8.91%
viability, T/C [5]: 7.98%
viability, T/C [6]: 26.6%
viability, T/C [7]: 10.1%
viability, T/C [8]: 8.61%
viability, T/C [9]: 9.22%
viability, T/C [10]: 10.1%
viability, T/C [11]: 14.3%
viability, T/C [12]: 38%
viability, T/C [13]: 33.1%
viability, T/C [14]: 39.2%
viability, T/C [15]: 43.9%
viability, T/C [16]: 48.2%
viability, T/C [17]: 83%
viability, T/C [18]: 110%
viability, T/C [19]: 45.3%
viability, T/C [20]: 50.2%
viability, T/C [21]: 54.3%
viability, T/C [22]: 60.5%
viability, T/C [23]: 88.4%
viability, T/C [24]: 89.6%
viability, T/C [25]: 38.8%
viability, T/C [26]: 46.5%
viability, T/C [27]: 54.1%
viability, T/C [28]: 51.5%
viability, T/C [29]: 74.2%
viability, T/C [30]: 86.5%
viability, T/C [31]: 36.8%
viability, T/C [32]: 43.2%
viability, T/C [33]: 49.7%
viability, T/C [34]: 60.2%
viability, T/C [35]: 77.1%
viability, T/C [36]: 84.3%

COc1ccc([C@@H](O)c2cc(-c3ncnc4cc(N5CCOCC5)ccc34)c(F)cc2Cl)nn1 + CNC(=O)c1ccc(Nc2nc(OC3CCCC3)c3c(-c4ccc5nc(C)oc5c4)c[nH]c3n2)c(OC)c1
IC50 (second compound 0.0316 µM): > 10000 nM
IC50 (second compound 0.1 µM): > 10000 nM
IC50 (second compound 0.316 µM): < 31.6 nM
IC50 (second compound 1 µM): < 31.6 nM
IC50 (second compound 3.16 µM): < 31.6 nM
IC50 (second compound 10 µM): < 31.6 nM
viability, T/C [1]: 109%
viability, T/C [2]: 95.5%
viability, T/C [3]: 105%
viability, T/C [4]: 93%
viability, T/C [5]: 80.3%
viability, T/C [6]: 51.1%
viability, T/C [7]: 98.9%
viability, T/C [8]: 110%
viability, T/C [9]: 94.5%
viability, T/C [10]: 97.2%
viability, T/C [11]: 72.9%
viability, T/C [12]: 54.7%
viability, T/C [13]: 42.2%
viability, T/C [14]: 41.4%
viability, T/C [15]: 49.1%
viability, T/C [16]: 43.2%
viability, T/C [17]: 45.5%
viability, T/C [18]: 31.9%
viability, T/C [19]: 27.8%
viability, T/C [20]: 28%
viability, T/C [21]: 29.1%
viability, T/C [22]: 24.9%
viability, T/C [23]: 25.9%
viability, T/C [24]: 21.4%
viability, T/C [25]: 26.8%
viability, T/C [26]: 30.3%
viability, T/C [27]: 26.3%
viability, T/C [28]: 25.9%
viability, T/C [29]: 23.6%
viability, T/C [30]: 18.4%
viability, T/C [31]: 28.2%
viability, T/C [32]: 26.5%
viability, T/C [33]: 23.1%
viability, T/C [34]: 24.4%
viability, T/C [35]: 27.2%
viability, T/C [36]: 17.7%

COc1cccc2c1C(=O)c1c(O)c3c(c(O)c1C2=O)CC(O)(C(=O)CO)CC3OC1CC(N)C(O)C(C)O1 (stereo unspecified) + CNC(=O)c1ccc(Nc2nc(OC3CCCC3)c3c(-c4ccc5nc(C)oc5c4)c[nH]c3n2)c(OC)c1
IC50 (second compound 0.0316 µM): 31.6 nM
IC50 (second compound 0.1 µM): < 31.6 nM
IC50 (second compound 0.316 µM): < 31.6 nM
IC50 (second compound 1 µM): < 31.6 nM
IC50 (second compound 3.16 µM): < 31.6 nM
IC50 (second compound 10 µM): < 31.6 nM
viability, T/C [1]: 51.4%
viability, T/C [2]: 23%
viability, T/C [3]: 21.7%
viability, T/C [4]: 6.66%
viability, T/C [5]: 1.89%
viability, T/C [6]: 1.95%
viability, T/C [7]: 46.4%
viability, T/C [8]: 26.4%
viability, T/C [9]: 19.6%
viability, T/C [10]: 4.09%
viability, T/C [11]: 2.62%
viability, T/C [12]: 1.16%
viability, T/C [13]: 27.8%
viability, T/C [14]: 25%
viability, T/C [15]: 14.5%
viability, T/C [16]: 4.53%
viability, T/C [17]: 2.76%
viability, T/C [18]: 1.6%
viability, T/C [19]: 25.2%
viability, T/C [20]: 18.5%
viability, T/C [21]: 9.38%
viability, T/C [22]: 1.17%
viability, T/C [23]: 0.61%
viability, T/C [24]: 0.81%
viability, T/C [25]: 26.2%
viability, T/C [26]: 17.2%
viability, T/C [27]: 4.87%
viability, T/C [28]: 0.94%
viability, T/C [29]: 1.27%
viability, T/C [30]: 0.57%
viability, T/C [31]: 25.1%
viability, T/C [32]: 20.3%
viability, T/C [33]: 3.72%
viability, T/C [34]: 0.69%
viability, T/C [35]: 1.84%
viability, T/C [36]: 0.97%
